Among the data in US11466047B2, “Cyclic di-nucleotide compounds as sting agonists” (Merck Sharp & Dohme Corp., priority 2017, dated 2022) are EC50 and activation values, retold here.

Like-named read-outs stand apart in the source and are kept apart here.

What is called EC50 is the midpoint of the concentration-response curve.

One assay deals with full-length WT STING (Homo sapiens (Human), UniProt Q86WV6, H232R). The assay is described as follows: 3H-cGAMP filtration binding assay (WT STING). Conditions: WT STING membrane. The procedure:
The ability of compounds to bind STING is quantified by their ability to compete with tritiated cGAMP ligand for human STING receptor membrane using a radioactive filter-binding assay. The binding assay employs STING receptor obtained from Trichoplusia ni cell membranes (T.ni; Expression Systems, cat #94-002F, overexpressing full-length WT STING and tritiated cGAMP ligand.
The basic WT STING filtration assay protocol is as follows:
16 nM of [^3H] c-GAMP ligand was prepared by diluting into assay buffer, and 50 uL of this working stock was manually added to each well of the assay plate. After ligand addition, 2 uL of either titrated test compound, DMSO control (Sigma #276855), or cold cGAMP control was added to the appropriate wells using a BIOMEK FX. The serially titrated compound was prepared on a Hamilton STARPlus CORE in a 96-well plate (Greiner, #651201) using a 1:3 ten-point dose response format. Following compound addition, a 2.2 ug/ml working concentration of STING membrane (SEQ. ID. No. 3) was prepared by diluting concentrated membrane into assay buffer (1×PBS; Invitrogen #SH30028.02) and douncing 7× using a manual tissue homogenizer (Wheaton, #357546). 148 uL of this prepared membrane was then manually added to each well of a 96-well deep-well polypropylene plate (Fisher Scientific, #12-566-121). Compound, ligand, and membrane then incubated for 60 min at RT before the contents of each assay plate were filtered through a 96-well GF/B filter plate (PerkinElmer, #6005250) using a TOMTEC MACH III Cell Harvester equipped with 20 mM HEPES buffer (Fisher Scientific, #BP299500). The filter plates were then dried at 55° C. for 30 min using a pressurized VWR oven before 30 uL of ULTIMA GOLD F scintillate was added to each well. Tritium levels for each reaction well were then measured using a PerkinElmer TopCount plate reader.
(§1) After normalization to controls, the percent activity for each compound concentration was calculated by measuring the amount of remaining radioactivity. The plot of percent activity versus the log of compound concentration was fit with a 4-parameter dose response equation to calculate EC50 values.

For the next assay, the system named is THP1 cells. As to the kind of experiment: IFN-β secretion in THP1 cell culture (5 h). In kind it is cell-based, human. The settings on record: Homo sapiens, THP-1, 5 h, 30 μM compound, relative to 2′3′-cGAMP at 30 μM, read-out: % Effect at 30 μM relative to 2′3′-cGAMP. The procedure:
The ability of compounds to stimulate the secretion of interferon-beta from THP1 cells was measured using a human IFN-β AlphaLISA kit (Perkin Elmer, Cat. No. AL265F). The basic protocol is as follows:
A Labcyte Echo 550 acoustic dispenser was used to transfer 120 nL of compound dissolved in DMSO into the wells of an empty, sterile 384-well microplate, (Corning, Cat. No. 3712). THP1 cells (American Type Culture Collection, Cat. No. TIB202) previously frozen in Recovery Medium (Life Technologies, Cat. No. 12648-010) were thawed and immediately diluted 10-fold into 37° C. assay medium (RPMI 1640+L-Glutamine & phenol red, Life Technologies, Cat. No. 11875-085; 0.5% heat inactivated fetal bovine serum, Sigma Aldrich, Cat. No. F4135; 1 mM Sodium Pyruvate, Life Technologies, Cat. No. 11360-070; lx non-essential amino acids; Life Technologies, Cat. No. 11140-050). The cell viability and count was ascertained using a Beckman Coulter V-Cell XR cell counter. The cell suspension was centrifuged at 200×g for 5 min at RT. Cells were resuspended to a density of 0.8×10^6/mL in 37° C. assay medium. Subsequent liquid transfers were performed using either a Matrix electronic multichannel pipette or an Agilent Bravo Automated Liquid Handling Platform.
The assay was started by dispensing 40 μL of the previously prepared cell suspension into the wells of the plate containing compounds. After 5 h incubation at 37° C., 5% CO2 in a humidified atmosphere, the plate of cells and compounds was centrifuged at 200×g for 5 min at RT. From each well, 5 μL of supernatant was transferred into corresponding wells of a white 384-well plate (Perkin Elmer, Cat. No. 6005620). To these supernatant-containing wells was added 10 μL of 5× Anti-Analyte Acceptor beads (50 μg/mL of AlphaLISA HiBlock Buffer) and incubated for 30 min at RT while shaking on an orbital plate shaker. To each well was added 10 μL of 5× Biotinylated Antibody Anti-analyte (5 nM in AlphaLISA HiBlock Buffer) and incubated on an orbital plate shaker for 60 min at RT or overnight at 4° C. To each well was added 25 μL of 2×SA-Donor beads (80 μg/mL in AlphaLISA HiBlock Buffer) and incubated for 30-45 min at RT in the dark while shaking on an orbital plate shaker. The plate was then read on a Perkin Elmer Envision (λex=680 nm, λem=570 nm). The percent effect of the AlphaLISA signal at each compound concentration was calculated based on 30 uM cGAMP positive controls and 0.3% DMSO negative controls. The plot of percent effect versus the log of compound concentration was fit with a 4-parameter concentration response equation to calculate EC50 values. The test compounds were tested at concentrations 30000, 10000, 3333, 1111, 370.4, 123.4, 41.2, 13.7, 4.6, and 1.5 nM with 0.3% residual DMSO. The control compound, cGAMP was tested at concentrations 100000, 33333, 11111, 3704, 1235, 412, 137, 46, and 15 nM with 0.3% residual DMSO.
Compounds of the disclosure were evaluated for IFN-β secretion in THP1 cell culture as described above. The following table tabulates the biological data for these compounds as percent activation relative to 2′3′-cGAMP at the 30 μM concentration.

In the next assay the target is full-length HAQ STING (Homo sapiens (Human), UniProt Q86WV6, G230A/H232R/R293Q/R71H). As to the kind of experiment: 3H-cGAMP filtration binding assay (HAQ STING). The settings on record: competition with tritiated cGAMP ligand, HAQ STING membrane.
Sequence of full-length HAQ STING (Q86WV6 whole entry, looked up, stated change not applied): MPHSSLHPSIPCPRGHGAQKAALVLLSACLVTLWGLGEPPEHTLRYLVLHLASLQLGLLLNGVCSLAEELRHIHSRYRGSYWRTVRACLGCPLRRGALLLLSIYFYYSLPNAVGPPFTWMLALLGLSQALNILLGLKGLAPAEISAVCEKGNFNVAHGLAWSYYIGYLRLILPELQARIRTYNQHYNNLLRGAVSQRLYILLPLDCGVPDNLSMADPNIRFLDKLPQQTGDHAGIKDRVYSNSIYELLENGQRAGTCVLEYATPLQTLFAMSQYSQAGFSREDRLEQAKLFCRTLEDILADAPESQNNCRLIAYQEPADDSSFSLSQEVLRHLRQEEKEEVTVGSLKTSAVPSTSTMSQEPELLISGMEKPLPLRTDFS
Text: The ability of compounds to bind STING is quantified by the ability to compete with tritiated cGAMP ligand for human STING receptor membrane using a radioactive filter-binding assay. The binding assay employs STING receptor obtained from Hi-Five cell membranes overexpressing full-length HAQ STING prepared in-house and tritiated cGAMP ligand also purified in-house.
The ability of compounds to bind STING is quantified by their ability to compete with tritiated cGAMP ligand for human STING receptor membrane using a radioactive filter-binding assay. The binding assay employs STING receptor obtained from Trichoplusia ni cell membranes (T.ni; Expression Systems, cat #94-002F, www.expressionsystems.com) overexpressing full-length HAQ STING and tritiated cGAMP ligand.
The basic HAQ STING filtration assay protocol is as follows:
The compounds were serially titrated by the Hamilton STARPlus CORE in a 96-well plate (Greiner, #651201) using a 1:3 ten-point dose response format. After compound preparation, a 2.2 ug/ml working concentration of STING membrane (SEQ. ID. No. 1) was prepared by diluting concentrated membrane into assay buffer (lx PBS; Invitrogen #SH30028.02) and douncing 7× using a manual tissue homogenizer (Wheaton, #357546). 148 uL of prepared membrane was then manually added to each well of a 96-well deep-well polypropylene plate (Fisher Scientific, #12-566-121). Following membrane addition, 2 uL of either titrated test compound, DMSO control (Sigma #276855), or cold cGAMP control was added to the appropriate wells using a BIOMEK FX. Compound and membrane then preincubated for 60 min at RT to allow compound binding to equilibrate. Following equilibration, 8 nM of [^3H]c-GAMP ligand was prepared by diluting into assay buffer, and 50 uL of this working stock was then manually added to each well of the assay plate. Plates were then incubated at RT for 60 min, and the contents of each assay plate were then filtered through a 96-well GF/B filter plate (PerkinElmer, #6005250) using a TOMTEC MACH III Cell Harvester equipped with 20 mM HEPES buffer (Fisher Scientific, #BP299500). The filter plates were then dried at 55° C. for 30 min using a pressurized oven before 30 uL of ULTIMA GOLD F scintillate was added to each well. Tritium levels for each reaction well were then measured using a PerkinElmer TopCount plate reader.
as §1

Where [1] appears, read: competition with tritiated cGAMP ligand, read-out: EC50.

Sequence of full-length WT STING (Q86WV6 whole entry, looked up, stated change not applied): as above

Consider `Nc1nc2c(ncn2[C@@H]2O[C@@H]3COP(=S)(S)O[C@H]4[C@H]5OC[C@]4(COP(O)(=S)O[C@@H]2[C@H]3F)O[C@H]5n2cnc3c(N)ncnc32)c(=O)[nH]1` (stereo partly drawn) [Example 9, 2-amino-9-[(5R,7R,8S,12aR,14R,15R, 15aS,18S)-14-(6-amino-9H-purin-9-yl)-18-fluoro-10-hydroxy-2-sulfanyl-2,10-disulfidohexahydro-14H-15,12a-(epoxymethano)-5,8-methanofuro[3,2-1][1,3,6,9,11,2,10]pentaoxadiphosphacyclotetradecin-7(12H)-yl]-1,9-dihydro-6H-purin-6-one], for which the EC50 is 4390 nM at full-length WT STING (setting [1]) and 349 nM at full-length HAQ STING. In the assay with THP1 cells, the activation at 30 µM amounted to 26%.
For `Nc1nc2c(ncn2[C@@H]2S[C@@H]3COP(=S)(S)O[C@H]4[C@H]5OC[C@]4(COP(=O)(O)O[C@@H]2[C@@H]3O)O[C@H]5n2cnc3c(N)ncnc32)c(=O)[nH]1` (stereo partly drawn) [Example 21, 2-amino-9-[(5R,7R,8R,12aR,14R,15R, 15aS,18S)-14-(6-amino-9H-purin-9-yl)-10,18-dihydroxy-10-oxido-2-sulfanyl-2-sulfidohexahydro-14H-15,12a-(epoxymethano)-5,8-methanofuro[3,2-1][1,3,9,11,6,2,10]tetraoxathiadiphosphacyclotetradecin-7(12H)-yl]-1,9-dihydro-6H-purin-6-one], the 50% effective concentration (EC50) on full-length WT STING (setting [1]) was determined as 1550 nM; at full-length HAQ STING, 217 nM. Moreover, the activation at 30 µM in the assay on THP1 cells was found to be 45%.
The corresponding values for `Nc1nc2c(ncn2[C@@H]2S[C@@H]3COP(=S)(S)O[C@H]4[C@H](F)[C@H](n5cnc6c(N)ncnc65)O[C@@H]4COP(O)(=S)O[C@@H]2[C@@H]3O)c(=O)[nH]1` (stereo partly drawn) [Example 16, 2-amino-9-[(5R,7R,8R,12aR,14R,15S,15aR,16S)-14-(6-amino-9H-purin-9-yl)-15-fluoro-10,16-dihydroxy-2-sulfanyl-2,10-disulfidooctahydro-12H-5,8-methanofuro[3,2-l][1,3,9,11,6,2,10]tetraoxathiadiphosphacyclotetradecin-7-yl]-1,9-dihydro-6H-purin-6-one] are 18 nM, 5 nM and 107%.
For `Nc1nc2c(ncn2[C@@H]2O[C@@H]3COP(=S)(S)O[C@H]4C[C@H](n5ccc6c(N)ncnc65)O[C@@H]4COP(O)(=S)O[C@@H]2C3)c(=O)[nH]1` (single isomer, unassigned) [Example 5], in that order: 8 nM, less than 1 nM and 95%.
For `Nc1nc2c(ncn2[C@@H]2O[C@@H]3COP(=S)(S)O[C@H]4[C@H](F)[C@H](n5cnc6c(N)ncnc65)O[C@@H]4COP(O)(=S)O[C@@H]2[C@@H]3F)c(=O)[nH]1` (single isomer, unassigned) [Example 1], the half-maximal effective concentration (EC50) at full-length WT STING (EC50, competition with tritiated cGAMP ligand) was less than 1 nM; on full-length HAQ STING it was less than 1 nM. Also, the activation at 30 µM in the assay with THP1 cells came to 165%.
